We go through 3 molecules from PMC9785144, “Metal Coordination and Biological Screening of a Schiff Base Derived from 8-Hydroxyquinoline and Benzothiazole” (Pharmaceutics, 2022).

The test system of one series is CT-26 colon cancer cells. Briefly: MTT antiproliferative assay, CT-26. The class given is cell-based, murine. Conditions: Mus musculus, CT26; CT-26, MTT, 48 h incubation. As for the experimental part: (§1) Murine colon cancer CT-26 (ATCC® CRL-263™) cells were cultured in RPMI-1640, supplemented with 10% foetal bovine serum (FBS) and 100 IU/mL of penicillin and 100 μg/mL streptomycin (Gibco, Thermo Fisher Scientific, Waltham, MA, USA), hereafter designated as complete culture medium. Human colon cancer HCT-116 (ATCC® CCL-247™), human melanoma A375 (ATCC® CCL-1619™), murine melanoma B16F10 (ATCC® CCL-6475™) cells and human epidermal keratinocytes (HaCaT) were maintained in Dulbecco’s modified Eagle’s medium (DMEM) with high-glucose (4500 mg/L) (Sigma-Aldrich, St. Louis, MO, USA), supplemented with 10% FBS and 100 IU/mL of penicillin and 100 μg/mL streptomycin (Gibco, Thermo Fisher Scientific, Waltham, MA, USA), also designated as complete culture medium. The cell lines were maintained at 37 °C in a 5% CO2 environment and cells were trypsinised every 2–3 days when 80% confluence was reached.
(§2) Negative controls were cells maintained in complete culture medium.
(Tetrazolium dyes change colour on reduction, which living cells bring about.)

Series [1] relates to HCT-116 colon cancer cells. Briefly: MTT antiproliferative assay, HCT-116. The class given is cell-based, human. Conditions: Homo sapiens; HCT-116, MTT, 48 h incubation. As for the experimental part:
as §1, §2

Series [2] has as its system HCT-116 cells. Briefly: Wound-healing migration assay, HCT-116. Particulars: HCT-116, 40 μM, at 22 h (control 50%). It is filed as cell-based, human. The protocol: To assess cellular migration in the presence or absence of tested compounds, HCT-116 and CT-26 cells were plated at 1.5 × 10^5 and 3 × 10^5 cells/mL in a 12-well plate (1 mL/well) and were allowed to adhere and grow until reaching around 80–90% confluence. A sterile 10 μL pipette tip was used to wound the cell monolayer, followed by a washing step with PBS to remove debris. Then, cells were incubated with the tested compounds suspended in RPMI-1640 (CT-26) or DMEM media (HCT-116) supplemented with 2% FBS and 100 IU/mL of penicillin and 100 μg/mL streptomycin (Gibco, Thermo Fisher Scientific, Waltham, MA, USA), and hereafter designated as RPMI 2% and DMEM 2%, respectively. Under the above mentioned culture conditions, CT-26 cells were incubated with [Ni(HL)(acetate)] or [Ru(HL)Cl(DMSO)] at concentrations of 10 and 15 μM, respectively. […] The positive control, 5-FU, was tested at 1.5 and 40 μM for CT-26 and HCT-116, respectively. Negative control group was constituted by cells maintained in RPMI 2% (CT-26) and DMEM 2% (HCT-116). Images of the wound closure were taken beneath the stage of a Zeiss Axiovert 200 inverted microscope, using a 10× objective and a digital camera (CoolSNAP EZ, Photometrics, Huntington Beach, CA, USA) and recorded by the Metafluor Software at 0, 2, 4, 8, 18, 20 and 22 h following cell monolayer scratching (Molecular Devices, Sunnyvale, CA, USA). […]

In another series the test system is CT-26 cells. Briefly: Guava ViaCount cell viability assay. It is filed as cell-based, murine. Conditions: CT-26, 48 h incubation. The protocol: CT-26 cells were incubated with [Ni(HL)(acetate)] or [Ru(HL)Cl(DMSO)] at concentrations of 5 and 10 μM or 10 and 20 μM, respectively. For the HCT-116 cell line, the tested concentrations were 5 and 7.5 μM, and 7.5 and 12.5 μM, respectively. The positive control group, 5-FU, was tested at 0.5 and 2 μM, and at 20 and 40 μM for CT-26 and HCT-116, respectively. Negative control group was constituted by cells in the presence of complete culture medium. After a 48 h incubation period, cell culture supernatants were collected, and adherent cells were detached using TrypLE™ Express (Invitrogen). Detached cells were then added to supernatants and the wells were washed using PBS with 2% FBS to recover any remaining cells. The recovered suspension was added to the previously collected cells and supernatants and centrifuged for 5 min at 650× g. The supernatants were discarded, and cells were suspended in PBS with 2% FBS. Then, on a 96-well plate, 20 μL of cell suspension was incubated with 180 μL of Guava ViaCount® reagent (Merck Millipore, Darmstadt, Germany) for 5 min at r. t. Using a Guava EasyCyte 5HT Flow cytometer (Guava Technologies, Inc., Hayward, CA, USA), data were collected and analysed with the ViaCount software module with the acquisition of 10,000 events per sample. GraphPad Prism®8 was used to analyse cell proliferation (GraphPad Software, San Diego, CA, USA). […]

The subject of series [3] is HCT-116 cells. Also noted: method as in PMID 34389368, PMID 34562873. Conditions: HCT-116, concentrations around 20 μM; cited from earlier work.
The subject of the next series is cancer cells. Conditions: in vitro; cited from earlier work.
Another series deals with HCT-116 cell line. Also noted: method as in PMID 26961176. Particulars: cited from earlier work.
Series [4] in a line: Stability in PBS pH 7.4 without and with BSA (UV-vis). Particulars: PBS pH 7.4, 25 °C, <1% DMSO, without BSA. It is filed as physicochemical.
Protocol: The complexes were monitored for their stability in PBS, pH 7.4 at 25 °C in the absence and presence of equimolar amounts of bovine serum albumin (BSA). Stock solutions of each complex were prepared in DMSO and then diluted in PBS in order to obtain final concentrations of 20 to 30 µM and ensuring that the organic solvent was less than 1% (v/v). For the assays with BSA, stock solutions of the protein were prepared in PBS using 20 mg of lyophilised powder in 5 mL solvent, which were allowed to hydrate for 24 h in the refrigerator. Samples were monitored by UV-vis absorption spectroscopy for 6 h and a final measurement was also taken after 24 h.
Series [5] addresses bovine serum albumin (BSA) (Bos taurus, UniProt P02769). The series can be described thus: Albumin binding by fluorescence quenching and circular dichroism. Conditions: BSA ca. 20–25 μM, bands centred at ca. 360 nm, compound 5 to 70 μM. As for the experimental part: The concentration of BSA in the experiments was ca. 1.5 μM (in aqueous PBS). The fluorescence emission spectra were recorded between 310 and 575 nm, with λex = 295 nm. Successive additions of the complexes were done directly to the cuvette (optical path 1 cm) and the fluorescence emission spectra were recorded for each one under the same conditions. Blank assays for each sample, consisting in solutions with the same concentration of complex and no BSA, were recorded and subtracted to the corresponding emission spectra containing the fluorophore. The UV-vis spectra of the sample solutions were used to correct the emission spectra, minimizing inner filter and reabsorption phenomena interference.
The concentration of BSA in the experiments was ca. 20–25 μM (in aqueous PBS). The circular dichroism (CD) spectra are an average of three scan accumulations, recorded between 300 and 500 nm, with bandwidth of 1 nm and response of 2 s, using a scanning speed of 100 nm/min. Successive additions of the complexes stock solutions in DMSO were done directly to the cuvette (1 cm) and the CD spectra were recorded under the same conditions after 10 min equilibration. Induced CD spectra were obtained as the CD spectrum of compound-BSA mixture minus the CD spectrum of BSA alone and are expressed as ellipticity in millidegrees.

For orientation: IC50 means the concentration that gives 50% inhibition.

Chain of bovine serum albumin (BSA) (P02769 25-607): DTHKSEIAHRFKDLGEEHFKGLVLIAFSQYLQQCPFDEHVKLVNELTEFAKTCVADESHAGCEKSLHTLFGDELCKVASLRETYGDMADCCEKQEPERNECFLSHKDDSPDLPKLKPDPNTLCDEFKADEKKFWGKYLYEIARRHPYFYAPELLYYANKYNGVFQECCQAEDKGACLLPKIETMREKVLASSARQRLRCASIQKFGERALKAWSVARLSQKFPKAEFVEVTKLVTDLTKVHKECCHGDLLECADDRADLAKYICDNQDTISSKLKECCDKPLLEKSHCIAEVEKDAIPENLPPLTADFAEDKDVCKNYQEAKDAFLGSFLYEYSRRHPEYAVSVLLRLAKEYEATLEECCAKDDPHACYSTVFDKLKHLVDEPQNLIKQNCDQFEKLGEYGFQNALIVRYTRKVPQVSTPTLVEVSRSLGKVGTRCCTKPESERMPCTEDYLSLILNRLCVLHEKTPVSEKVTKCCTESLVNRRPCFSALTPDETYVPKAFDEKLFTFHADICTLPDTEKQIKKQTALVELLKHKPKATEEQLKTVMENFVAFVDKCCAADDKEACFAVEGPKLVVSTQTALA

With `O=c1[nH]cc(F)c(=O)[nH]1` [5-FU, 5-fluorouracil, reference compound], the IC50 in the series with CT-26 colon cancer cells amounted to 2.7 ± 1.9 µM; in [1], 43.8 ± 2.3 µM. The maximum wound closure in the series with HCT-116 cells [2] is given as 39%. Further, in the series with CT-26 cells, the “cell viability by Guava ViaCount” value was “higher percentage of dead and apoptotic cells”. Further, in the series with HCT-116 cells [3], the cell cycle arrest result is on record as “arrested cell cycle at S phase”.
For `CS(C)=O.[Cl-].[Cl-].[Cl-].[Cl-].[Ru+3].c1c[nH+]c[nH]1.c1c[nH]cn1` [NAMI-A], in the series with cancer cells, the “cytotoxicity against cancer cells” value was “minimal cytotoxicity” and the “fold lower activity than cisplatin” value is reported as 1000 fold. For the same molecule, the “effect on cell adhesion and migration” value in the series with HCT-116 cell line was “inhibitory effect in reducing cell adhesion and migration”.
Regarding `[O]=[V]([O]c1cccc2ccc(/C=N/Nc3nc4ccccc4s3)nc12)[O]c1cccc2ccc(/C=N/Nc3nc4ccccc4s3)nc12` [[VO(HL)2]], in series [4], the “solubility and stability in PBS buffered solutions” value is recorded as “oxidation of the metal centre likely takes place”. Further, the “induced CD bands with BSA” value in series [5] is on record as “high intensity induced CD bands”.
